Assay [1] has as its system HepG2. Nature of the assay: Anticancer activity against human HepG2 cells assessed as inhibition of cell growth incubated for 24 hrs by MTT assay. Format: functional, cell-based. The note with it: HepG2, 24 h. (Formazan colour is commonly taken as a measure of viable cells.)
For assay [2], the system named is MCF7. Nature of the assay: Anticancer activity against human MCF7 cells assessed as inhibition of cell growth incubated for 24 hrs by MTT assay. The note with it: MCF7, 24 h. Format: functional, cell-based.
For assay [3], the system named is PC-3. Nature of the assay: Anticancer activity against human PC3 cells assessed as inhibition of cell growth incubated for 24 hrs by MTT assay. Type of assay: functional, cell-based. The settings on record: PC-3, 24 h.
For assay [4], the system named is HCT-116. Description: Anticancer activity against human HCT116 cells assessed as inhibition of cell growth incubated for 24 hrs by MTT assay. Format: functional, cell-based. The note with it: HCT-116, 24 h.
In assay [5] the test system is HeLa. Description: Anticancer activity against human HeLa cells assessed as inhibition of cell growth incubated for 24 hrs by MTT assay. Type of assay: functional, cell-based.
For assay [6], the target named is Epidermal growth factor receptor (Homo sapiens, UniProt P00533). Nature of the assay: Inhibition of human EGFR-TK using PTK substrate after 40 mins in presence of ATP by Kinase-Glo luminescent assay.
Assay [7] deals with MCF7. Nature of the assay: Induction of apoptosis in human MCF7 cells assessed after 24 hrs by Annexin V-FITC/propidium iodide double staining based FACSCalibur flow cytometry analysis. Type of assay: functional, cell-based. (In general: Flow cytometry measures light scatter and fluorescence of single cells or particles in a stream.)
In assay [8] the test system is MCF7. Description: Induction of apoptosis in human MCF7 cells assessed as viable cells after 24 hrs by Annexin V-FITC/propidium iodide double staining based FACSCalibur flow cytometry analysis (reference value: 97.89 %). Format: functional.
Assay [9] has as its system MCF7. Nature of the assay: Induction of apoptosis in human MCF7 cells assessed as early apoptotic cells after 24 hrs by Annexin V-FITC/propidium iodide double staining based FACSCalibur flow cytometry analysis (reference value: 1.22 %). Type of assay: functional.
Assay [10] has as its system MCF7. Description: Induction of apoptosis in human MCF7 cells assessed as late apoptotic cells after 24 hrs by Annexin V-FITC/propidium iodide double staining based FACSCalibur flow cytometry analysis (reference value: 0.43 %). Format: functional.
The subject of assay [11] is MCF7. Nature of the assay: Induction of apoptosis in human MCF7 cells assessed as necrotic cells after 24 hrs by Annexin V-FITC/propidium iodide double staining based FACSCalibur flow cytometry analysis (reference value: 0.46 %). Format: functional.
Assay [12] relates to MCF7. Nature of the assay: Induction of apoptosis in human MCF7 cells assessed as cumulative apoptosis after 24 hrs by Annexin V-FITC/propidium iodide double staining based FACSCalibur flow cytometry analysis (reference value: 2.11 %). Format: functional.
The subject of assay [13] is MCF7. Nature of the assay: Cell cycle arrest in human MCF7 cells assessed as accumulation of cells at G0/G1 phase at IC50 after 24 hrs by propidium iodide/RNase staining based FACSCalibur flow cytometry analysis (reference value: 57.28 %). Type of assay: functional.
Assay [14] has as its system MCF7. Description: Cell cycle arrest in human MCF7 cells assessed as accumulation of cells at S phase at IC50 after 24 hrs by propidium iodide/RNase staining based FACSCalibur flow cytometry analysis (reference value: 26.49 %). Format: functional.
Assay [15] has as its system MCF7. Nature of the assay: Cell cycle arrest in human MCF7 cells assessed as accumulation of cells at G2/M phase at IC50 after 24 hrs by propidium iodide/RNase staining based FACSCalibur flow cytometry analysis (reference value: 16.23 %). Type of assay: functional.
Assay [16] relates to MCF7. Description: Cell cycle arrest in human MCF7 cells assessed as accumulation of cells at pre-G1 phase at IC50 after 24 hrs by propidium iodide/RNase staining based FACSCalibur flow cytometry analysis (reference value: 2.11 %). Type of assay: functional.

pIC50: −log10 of the molar value.

Epidermal growth factor receptor, sequence (P00533 whole entry): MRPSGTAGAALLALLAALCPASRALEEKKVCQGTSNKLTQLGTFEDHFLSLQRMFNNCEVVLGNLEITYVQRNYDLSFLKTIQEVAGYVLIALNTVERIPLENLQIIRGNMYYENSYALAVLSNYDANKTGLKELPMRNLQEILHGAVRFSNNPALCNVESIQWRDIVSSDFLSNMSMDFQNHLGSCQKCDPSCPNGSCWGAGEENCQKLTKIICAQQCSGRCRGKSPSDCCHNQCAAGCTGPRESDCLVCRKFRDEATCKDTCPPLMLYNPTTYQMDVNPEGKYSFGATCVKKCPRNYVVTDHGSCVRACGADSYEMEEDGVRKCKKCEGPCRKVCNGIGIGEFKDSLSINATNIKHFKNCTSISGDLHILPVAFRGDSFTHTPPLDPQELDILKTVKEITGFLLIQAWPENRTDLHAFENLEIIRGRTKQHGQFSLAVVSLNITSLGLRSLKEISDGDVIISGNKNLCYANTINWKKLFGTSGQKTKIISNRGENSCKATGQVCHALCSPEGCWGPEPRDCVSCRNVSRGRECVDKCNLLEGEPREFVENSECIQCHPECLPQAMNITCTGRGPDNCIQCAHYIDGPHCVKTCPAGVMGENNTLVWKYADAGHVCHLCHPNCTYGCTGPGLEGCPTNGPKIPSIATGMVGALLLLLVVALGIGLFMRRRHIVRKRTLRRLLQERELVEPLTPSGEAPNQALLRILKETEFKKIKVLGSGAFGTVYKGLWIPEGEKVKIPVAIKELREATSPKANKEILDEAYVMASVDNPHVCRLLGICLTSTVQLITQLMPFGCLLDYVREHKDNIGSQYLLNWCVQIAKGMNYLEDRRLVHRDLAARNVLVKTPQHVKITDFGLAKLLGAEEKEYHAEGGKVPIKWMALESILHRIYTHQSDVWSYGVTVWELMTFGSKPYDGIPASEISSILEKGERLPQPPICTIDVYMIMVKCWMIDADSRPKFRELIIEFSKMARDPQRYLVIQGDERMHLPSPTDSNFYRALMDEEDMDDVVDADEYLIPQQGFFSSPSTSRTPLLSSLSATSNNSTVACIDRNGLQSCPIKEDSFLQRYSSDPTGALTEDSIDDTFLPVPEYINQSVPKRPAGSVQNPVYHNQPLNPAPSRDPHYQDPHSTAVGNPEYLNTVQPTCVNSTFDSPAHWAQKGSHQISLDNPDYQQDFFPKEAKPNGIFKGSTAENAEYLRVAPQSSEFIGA

Consider `C(=N\c1nnc2c3ccccc3nc(Nc3ccccc3)n12)/c1ccccc1`, for which the pIC50 – broadly, the IC50 on a negative log10 scale, so that one unit is a factor of ten – in assay [1] is 4.72; in assay [2] it was 4.69; in assay [3], 4.90; in [4], 4.61; in assay [5], 4.65.
`Nc1cc([N+](=O)[O-])ccc1Nc1nc2ccccc2c2nnc(/N=C/C=C/c3ccccc3)n12`: the pIC50 in [1] was 4.86; in [2] it was 4.49; in assay [3] it was 4.60; in assay [4] it was 4.94; in assay [5] it was 4.44.
`O=C1CSCC(=O)N1c1nnc2c3ccccc3nc(Sc3ccc(Br)cc3)n12`: the pIC50 in [1] was 5.07; in assay [2] it was 5.02; in assay [3], 4.97; in assay [4], 4.92; in assay [5], 4.93; in [6], 5.39.
As to `Nc1nnc2c3ccccc3nc(Sc3ccc(Br)cc3)n12`, the pIC50 in [1] is 4.35; in assay [2], 4.24; in [3] it was 4.23; in assay [4], 4.20; in assay [5], 4.34.
`O=C(CN1CCOCC1)Nc1nnc2c3ccccc3nc(Sc3ccc(Br)cc3)n12`: the pIC50 in assay [1] is 4.30; in assay [2], 4.25; in assay [3] it was 4.21; in assay [5] it was 4.33.
In the case of `O=C(Nc1nnc2c3ccccc3nc(Sc3ccc(Br)cc3)n12)c1ccc(Cl)c([N+](=O)[O-])c1`, the pIC50 was 4.74 in assay [1]; 4.70 in assay [2]; 4.78 in [3]; 4.69 in [4]; 4.79 in [5].
The corresponding values for `Fc1ccc(/C=N/c2nnc3c4ccccc4nc(Cl)n23)cc1` are 4.51, 4.59, 4.42, 4.73 and 4.53.
The corresponding values for `O=C(Nc1nnc2c3ccccc3nc(Sc3ccc(Br)cc3)n12)c1ccccc1` are 4.49, 4.52, 4.53, 4.35 and 4.33.
The corresponding values for `C(=N\c1nnc2c3ccccc3nc(Nc3ccccc3)n12)/c1ccco1` are 4.68, 4.71, 4.36, 4.61 and 4.81.
As to `c1ccc2c(c1)nc(Oc1ccc(NCCCN3CCOCC3)cc1)n1cnnc21`, the pIC50 is 4.33 in assay [1]; 4.41 in assay [2]; 4.38 in [3]; 4.40 in assay [4]; 4.35 in [5].
Regarding `CCN1CCN(CC(=O)Nc2nnc3c4ccccc4nc(Sc4ccc(Br)cc4)n23)CC1`, the pIC50 in assay [1] is 4.94; in assay [2], 4.90; in [3], 4.97; in [4], 4.82; in assay [5] it was 4.81; in assay [6], 5.41.
`O=[N+]([O-])c1cccc(/C=N/c2nnc3c4ccccc4nc(Nc4ccccc4)n23)c1`: the pIC50 in assay [1] was 4.36; in assay [2], 4.39; in assay [3], 4.45; in [4], 4.46; in assay [5], 4.50.
Consider `CCN1CCN(CCCNc2ccc(Oc3nc4ccccc4c4nncn34)cc2)CC1`, for which the pIC50 in assay [1] is 4.94; in assay [2] it was 4.89; in [3], 4.98; in [4], 4.86; in assay [5] it was 4.85; in [6], 5.02.
`Clc1nc2ccccc2c2nnc(/N=C/c3ccccc3)n12`: the pIC50 in assay [1] is 4.71; in [2], 4.77; in assay [3], 4.56; in [4], 4.65; in [5], 4.46.
Take `O=C(CCl)Nc1nnc2c3ccccc3nc(Sc3ccc(Br)cc3)n12`: the pIC50 is 4.52 in assay [1]; 4.46 in assay [2]; 4.43 in [3]; 4.43 in assay [4]; 4.52 in [5].
In the case of `O=[N+]([O-])c1cccc(/C=N/c2nnc3c4ccccc4nc(Cl)n23)c1`, the pIC50 is 4.26 in assay [1]; 4.32 in assay [2]; 4.22 in assay [3]; 4.31 in assay [4]; 4.13 in assay [5].
Take `c1ccc(N2CCN(CCCNc3ccc(Oc4nc5ccccc5c5nncn45)cc3)CC2)cc1`: the pIC50 in assay [1] was 4.62; in assay [2] it was 4.52; in [3], 4.29; in assay [4], 4.49; in assay [5], 4.63.
Consider `N#CC1=C(N)N(c2nnc3c4ccccc4nc(Sc4ccc(Br)cc4)n23)C(=O)C1`, for which the negative logarithm of the IC50 (pIC50) is 4.82 in assay [1]; 5.07 in assay [2]; 4.98 in assay [3]; 4.87 in assay [4]; 5.02 in assay [5]; 5.74 in [6]. Also, the Activity entry in [7] was “Dose-dependent effect”; in assay [8], 80.59%; in [9] it was 7.26%; in assay [10], 10.26%; in [11], 1.89%; in assay [12], 19.41%. Besides, the Activity in assay [13] turned out to be 41.33%; in [14] it was 25.46%; in assay [15], 33.21%; in assay [16], 19.41%.
Consider `Cc1cccc(Nc2nc3ccccc3c3nnc(/N=C/c4ccc(F)cc4)n23)c1`, for which the pIC50 in assay [1] was 4.62; in assay [2] it was 4.74; in [3], 4.52; in assay [4], 4.69; in [5], 4.58.
On to `COc1cccc2c1C(=O)c1c(O)c3c(c(O)c1C2=O)C[C@@](O)(C(=O)CO)C[C@@H]3O[C@H]1C[C@H](N)[C@H](O)[C@H](C)O1` [DOXORUBICIN], for which the Activity in [8] is reported as 67.84%; in [9] it was 9.28%; in assay [10], 19.81%; in assay [11], 3.07%; in [12] it was 32.16%; in assay [13], 32.16%. Also, the Activity came out at 22.91% in assay [14], 48.57% in assay [15] and 32.16% in assay [16].
As for `COc1ccc(/C=N/c2nnc3c4ccccc4nc(Cl)n23)cc1O`, the pIC50 in assay [1] is 4.31; in [2], 4.43; in assay [3] it was 4.48; in assay [4], 4.51; in assay [5] it was 4.53.
With `Clc1nc2ccccc2c2nnc(/N=C/C=C/c3ccccc3)n12`, the pIC50 in assay [1] was 4.94; in assay [2], 5.08; in assay [3], 4.78; in assay [4] it was 4.89; in [5], 5.04; in assay [6], 5.12.
As to `CN1CCN(CC(=O)Nc2nnc3c4ccccc4nc(Sc4ccc(Br)cc4)n23)CC1`, the pIC50 in [1] was 4.57; in assay [2] it was 4.61; in assay [3] it was 4.38; in assay [4] it was 4.35; in [5] it was 4.45.
The corresponding values for `CN1CCN(CCCNc2ccc(Oc3nc4ccccc4c4nncn34)cc2)CC1` are 4.78, 4.81, 4.84, 4.76 and 4.90.
`Clc1nc2ccccc2c2nnc(/N=C/c3ccco3)n12`: the negative logarithm of the IC50 (pIC50) in [1] was 4.82; in [2], 5.01; in [3], 4.66; in assay [4], 4.83; in [5] it was 4.72; in assay [6] it was 6.13. Also, the Activity result is “Dose-dependent effect” in assay [7]; 91.44% in [8]; 2.92% in assay [9]; 4.22% in assay [10]; 1.42% in assay [11]; 8.56% in assay [12]. Also, the Activity in [13] was 46.72%; in assay [14] it was 30.19%; in assay [15], 23.09%; in assay [16] it was 8.56%.
For the compound `COc1ccc(/C=N/c2nnc3c4ccccc4nc(Nc4ccc(C)cc4N)n23)cc1O`, the pIC50 in assay [1] was 5.01; in [2], 4.91; in [3], 4.75; in [4], 5.08; in assay [5], 4.99; in assay [6], 5.37.
Consider `Nc1ccc(Oc2nc3ccccc3c3nncn23)cc1`, for which the negative-log IC50 (pIC50) was 4.58 in assay [1]; 4.69 in assay [2]; 4.57 in assay [3]; 4.56 in assay [4]; 4.59 in assay [5].

These data come from ChEMBL document CHEMBL4619706, “Synthesis, biological evaluation and molecular modeling study of [1,2,4]-Triazolo[4,3-c]quinazolines: New class of EGFR-TK inhibitors” (Bioorg Med Chem, 2020).
